# Measurements: US20230024302A1, “2,3,5-TRISUBSTITUTED PYRAZOLO[1,5-A]PYRIMIDINE COMPOUNDS” (Arcus Biosciences, Inc., priority 2019, published 2023)
# Read-outs that look alike come from different tables or passages of the source.
# How the values were obtained:
# PI3Kγ = target: T1, PI3Kγ (Homo sapiens, UniProt P48736); assay: PI3Kγ cellular assay in THP-1 cells (AKT pS473 AlphaLISA); type: cell-based
# T1 construct: host or cells: THP-1
# Outline: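 Serum-starved THP-1 cells (1.8×10^5/well, serum-free DMEM) treated with compounds from 4 nM to 30 μM in 2% DMSO, then stimulated and lysed.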
# PI3Kγ (p120γ) = target: T2, PI3Kγ (p120γ) (Homo sapiens, UniProt P48736); assay: Inhibition of PI3K kinase activity (ADP Glo), PI3Kγ; details: read-out: biochemical potency (PI3Kγ IC50)
# T2 construct: purchased Promega V1761
# T2 sequence (P48736 whole entry): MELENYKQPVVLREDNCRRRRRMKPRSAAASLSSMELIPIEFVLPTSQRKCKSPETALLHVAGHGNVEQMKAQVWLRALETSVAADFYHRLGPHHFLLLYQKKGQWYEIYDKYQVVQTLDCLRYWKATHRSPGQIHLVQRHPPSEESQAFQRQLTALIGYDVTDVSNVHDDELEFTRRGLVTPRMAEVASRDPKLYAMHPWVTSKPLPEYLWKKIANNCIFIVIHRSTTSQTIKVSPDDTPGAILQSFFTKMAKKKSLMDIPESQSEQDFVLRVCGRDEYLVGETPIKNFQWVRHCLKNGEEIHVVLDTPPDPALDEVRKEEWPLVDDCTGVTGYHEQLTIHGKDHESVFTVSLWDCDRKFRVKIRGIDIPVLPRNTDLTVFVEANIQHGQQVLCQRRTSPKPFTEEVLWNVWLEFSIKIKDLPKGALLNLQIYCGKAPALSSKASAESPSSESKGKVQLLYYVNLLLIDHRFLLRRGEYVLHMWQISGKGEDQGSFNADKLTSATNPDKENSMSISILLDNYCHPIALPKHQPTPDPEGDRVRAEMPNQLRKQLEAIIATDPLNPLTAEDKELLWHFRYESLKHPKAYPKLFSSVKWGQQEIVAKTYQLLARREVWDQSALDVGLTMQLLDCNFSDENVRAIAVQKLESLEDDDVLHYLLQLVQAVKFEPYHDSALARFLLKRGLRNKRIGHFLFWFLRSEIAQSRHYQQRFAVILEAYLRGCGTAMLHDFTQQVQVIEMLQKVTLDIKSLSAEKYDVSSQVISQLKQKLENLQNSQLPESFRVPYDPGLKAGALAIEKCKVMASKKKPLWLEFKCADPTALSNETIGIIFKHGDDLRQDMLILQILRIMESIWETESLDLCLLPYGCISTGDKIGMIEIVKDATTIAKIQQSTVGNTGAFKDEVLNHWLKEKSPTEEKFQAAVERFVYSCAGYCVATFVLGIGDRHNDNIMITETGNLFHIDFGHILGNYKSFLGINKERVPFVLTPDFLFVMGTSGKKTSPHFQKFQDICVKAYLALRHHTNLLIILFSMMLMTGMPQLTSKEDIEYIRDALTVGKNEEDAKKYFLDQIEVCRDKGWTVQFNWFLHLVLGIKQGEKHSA
# Outline: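 Recombinant p120γ (8 nM, 2× stock) was preincubated with compound for 1 h at rt in HEPES pH 7.4, NaCl, MgCl2 and 0.05% BSA. Reaction was started with PIP2 (0.1 mg/ml, 2×) and ATP (50 μM, 2×) and ran 60 min at rt. ADP formed was read by ADP-Glo luminescence, and IC50 came from a 4-parameter fit.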
# [1] = Table 3, rhMCP-1 stimulated AKT pS473, read-out: cellular potency (PI3Kγ IC50)
# [2] = AKT pS473, read-out: cellular potency (PI3Kγ IC50)
# T1 sequence (P48736 whole entry): as above
IC50 (PI3Kγ; [1]) [nM],"IC50 (PI3Kγ (p120γ); Table 3, p120γ) [nM]",IC50 (PI3Kγ; [2]) [nM],IC50 (PI3Kγ (p120γ)) [nM],Structure (SMILES)
100 to 1000,< 100,–,–,C[C@@H](C1CC1)N1Cc2cc(-c3ccn4nc(N)c(C(=O)NC[C@@H](O)CO)c4n3)cc(C(F)(F)F)c2C1=O [Example 344]
100 to 1000,< 100,–,–,C[C@@H](C1CC1)N1Cc2cc(-c3ccn4nc(N)c(C(=O)N[C@H]5CC[C@@](O)(C(F)(F)F)CC5)c4n3)cc(C(F)(F)F)c2C1=O [Example 345]
100 to 1000,< 100,–,–,C[C@H](O)CCNC(=O)c1c(N)nn2ccc(-c3cc4c(c(C(F)(F)F)c3)C(=O)N([C@@H](C)C3CC3)C4)nc12 [Example 346]
100 to 1000,< 100,–,–,C[C@@H](C1CC1)N1Cc2cc(-c3ccn4nc(N)c(C(=O)NC5CCS(=O)(=O)CC5)c4n3)cc(C(F)(F)F)c2C1=O [Example 347]
100 to 1000,< 100,–,–,C[C@@H](C1CC1)N1Cc2cc(-c3ccn4nc(N)c(C(=O)NC[C@H](O)CO)c4n3)cc(C(F)(F)F)c2C1=O [Example 348]
100 to 1000,< 100,–,–,C[C@@H](C1CC1)N1Cc2cc(-c3ccn4nc(N)c(C(=O)NC5CC5)c4n3)cc(C(F)(F)F)c2C1=O [Example 349]
100 to 1000,< 100,–,–,C[C@@H](C1CC1)N1Cc2cc(-c3ccn4nc(N)c(C(=O)Nc5ccnc(C#N)c5)c4n3)cc(C(F)(F)F)c2C1=O [Example 350]
100 to 1000,< 100,–,–,C[C@@H](C1CC1)N1Cc2cc(-c3ccn4nc(N)c(C(=O)Nc5cncc(F)c5)c4n3)cc(C(F)(F)F)c2C1=O [Example 351]
100 to 1000,< 100,–,–,C[C@@H](C1CC1)N1Cc2cc(-c3ccn4nc(N)c(C(=O)NCCNS(C)(=O)=O)c4n3)cc(C(F)(F)F)c2C1=O [Example 352]
100 to 1000,< 100,–,–,C[C@@H](C1CC1)N1Cc2cc(-c3ccn4nc(N)c(C(=O)N[C@@H](CO)C5CC5)c4n3)cc(C(F)(F)F)c2C1=O [Example 353]
100 to 1000,< 100,–,–,C[C@@H](C1CC1)N1Cc2cc(-c3ccn4nc(N)c(C(=O)Nc5ccc(CC(F)(F)F)nc5)c4n3)cc(C(F)(F)F)c2C1=O [Example 354]
100 to 1000,< 100,–,–,COc1cncc(NC(=O)c2c(N)nn3ccc(-c4cc5c(c(C(F)(F)F)c4)C(=O)N([C@@H](C)C4CC4)C5)nc23)c1 [Example 355]
100 to 1000,< 100,–,–,C[C@@H](C1CC1)N1Cc2cc(-c3ccn4nc(N)c(C(=O)N[C@H]5CCCNC5)c4n3)cc(C(F)(F)F)c2C1=O [Example 356]
> 1000,< 100,–,–,C[C@@H](C1CC1)N1Cc2cc(-c3ccn4nc(N)c(C(=O)N[C@H]5CNC[C@H]5O)c4n3)cc(C(F)(F)F)c2C1=O [Example 357]
100 to 1000,< 100,–,–,C[C@@H](C1CC1)N1Cc2cc(-c3ccn4nc(N)c(C(=O)N[C@@H]5CCC[C@H](N)C5)c4n3)cc(C(F)(F)F)c2C1=O [Example 358]
> 1000,< 100,–,–,C[C@@H](C1CC1)N1Cc2cc(-c3ccn4nc(N)c(C(=O)N[C@H]5CNC[C@@H]5O)c4n3)cc(C(F)(F)F)c2C1=O [Example 359]
> 1000,< 100,–,–,C[C@@H](C1CC1)N1Cc2cc(-c3ccn4nc(N)c(C(=O)N[C@@H]5CNC[C@H]5O)c4n3)cc(C(F)(F)F)c2C1=O [Example 360]
100 to 1000,< 100,–,–,C[C@@H](C1CC1)N1Cc2cc(-c3ccn4nc(N)c(C(=O)N[C@@H](CO)C(F)(F)F)c4n3)cc(C(F)(F)F)c2C1=O [Example 361]
100 to 1000,< 100,–,–,C[C@@H](C1CC1)N1Cc2cc(-c3ccn4nc(N)c(C(=O)N[C@@H]5CCC[C@H](N(C)C)C5)c4n3)cc(C(F)(F)F)c2C1=O [Example 362]
> 1000,< 100,–,–,C[C@@H](C1CC1)N1Cc2cc(-c3ccn4nc(N)c(C(=O)Nc5ccccc5)c4n3)cc(C(F)(F)F)c2C1=O [Example 363]
100 to 1000,< 100,–,–,COCC(NC(=O)c1c(N)nn2ccc(-c3cc4c(c(C(F)(F)F)c3)C(=O)N([C@@H](C)C3CC3)C4)nc12)C(C)C (some centres unmarked) [Example 364]
100 to 1000,< 100,–,–,C[C@@H](C1CC1)N1Cc2cc(-c3ccn4nc(N)c(C(=O)NC5CC5c5ccccc5)c4n3)cc(C(F)(F)F)c2C1=O (some centres unmarked) [Example 365]
> 1000,< 100,–,–,C[C@@H](C1CC1)N1Cc2cc(-c3ccn4nc(N)c(C(=O)N[C@H]5CCC[C@@H](N)C5)c4n3)cc(C(F)(F)F)c2C1=O [Example 366]
> 1000,< 100,–,–,C[C@@H](C1CC1)N1Cc2cc(-c3ccn4nc(N)c(C(=O)N[C@H]5CCC[C@H](N)C5)c4n3)cc(C(F)(F)F)c2C1=O [Example 367]
100 to 1000,< 100,–,–,C[C@@H](C1CC1)N1Cc2cc(-c3ccn4nc(N)c(C(=O)N[C@H]5CC[C@H](N)CC5)c4n3)cc(C(F)(F)F)c2C1=O [Example 368]

IC50 (PI3Kγ; [1]) [nM],"IC50 (PI3Kγ (p120γ); Table 3, p120γ) [nM]",IC50 (PI3Kγ; [2]) [nM],IC50 (PI3Kγ (p120γ)) [nM],Structure (SMILES)
–,–,100 to 1000,< 100,CC(CO)NC(=O)c1c(N)nn2ccc(-c3cc(F)c4c(c3)CN([C@@H](C)C3CC3)C4=O)nc12 (some centres unmarked) [Example 369]
–,–,100 to 1000,< 100,C[C@@H](C1CC1)N1Cc2cc(-c3ccn4nc(N)c(C(=O)NC5CC5)c4n3)cc(F)c2C1=O [Example 370]
–,–,100 to 1000,< 100,C[C@@H](C1CC1)N1Cc2cc(-c3ccn4nc(N)c(C(=O)Nc5ccc(=O)[nH]c5)c4n3)cc(NS(C)(=O)=O)c2C1=O [Example 371]
–,–,100 to 1000,< 100,C[C@@H](C1CC1)N1Cc2cc(-c3ccn4nc(N)c(C(=O)N[C@H]5CCNC5=O)c4n3)cc(NS(C)(=O)=O)c2C1=O [Example 372]
–,–,100 to 1000,< 100,C[C@@H](C1CC1)N1Cc2cc(-c3ccn4nc(N)c(C(=O)NC(C)(C)C(N)=O)c4n3)cc(NS(C)(=O)=O)c2C1=O [Example 373]
–,–,100 to 1000,< 100,C[C@@H](C1CC1)N1Cc2cc(-c3ccn4nc(N)c(C(=O)N[C@H]5CNC(=O)C5)c4n3)cc(NS(C)(=O)=O)c2C1=O [Example 374]
–,–,100 to 1000,< 100,COC(=O)c1cc(NC(=O)c2c(N)nn3ccc(-c4cc5c(c(NS(C)(=O)=O)c4)C(=O)N([C@@H](C)C4CC4)C5)nc23)ccn1 [Example 375]
–,–,100 to 1000,< 100,C[C@@H](C1CC1)N1Cc2cc(-c3ccn4nc(N)c(C(=O)N[C@@H](CO)C(F)(F)F)c4n3)cc(NS(C)(=O)=O)c2C1=O [Example 376]
–,–,< 100,< 100,C[C@@H](C1CC1)N1Cc2cc(-c3ccn4nc(N)c(C(=O)NC5C6CC7CC5CC(O)(C7)C6)c4n3)cc(NS(C)(=O)=O)c2C1=O (some centres unmarked) [Example 377]
–,–,100 to 1000,< 100,C[C@@H](C1CC1)N1Cc2cc(-c3ccn4nc(N)c(C(=O)Nc5cccc(F)c5)c4n3)cc(NS(C)(=O)=O)c2C1=O [Example 378]
–,–,> 1000,< 100,C[C@@H](C1CC1)N1Cc2cc(-c3ccn4nc(N)c(C(=O)Nc5ccnc(CO)c5)c4n3)cc(NS(C)(=O)=O)c2C1=O [Example 379]
–,–,100 to 1000,< 100,COc1ccc(NC(=O)c2c(N)nn3ccc(-c4cc5c(c(NS(C)(=O)=O)c4)C(=O)N([C@@H](C)C4CC4)C5)nc23)cc1 [Example 380]
–,–,100 to 1000,< 100,C[C@@H](C1CC1)N1Cc2cc(-c3ccn4nc(N)c(C(=O)NCC5(O)CC5)c4n3)cc(NS(C)(=O)=O)c2C1=O [Example 381]
–,–,100 to 1000,< 100,C[C@H](NC(=O)c1c(N)nn2ccc(-c3cc4c(c(NS(C)(=O)=O)c3)C(=O)N([C@@H](C)C3CC3)C4)nc12)C(N)=O [Example 382]
–,–,100 to 1000,< 100,C[C@@H](C1CC1)N1Cc2cc(-c3ccn4nc(N)c(C(=O)NCCO)c4n3)cc(NS(C)(=O)=O)c2C1=O [Example 383]
–,–,100 to 1000,< 100,C[C@@H](C1CC1)N1Cc2cc(-c3ccn4nc(N)c(C(=O)N[C@@H]5CCCC[C@H]5O)c4n3)cc(NS(C)(=O)=O)c2C1=O [Example 384]
–,–,100 to 1000,< 100,COC[C@@H](C)NC(=O)c1c(N)nn2ccc(-c3cc4c(c(NS(C)(=O)=O)c3)C(=O)N([C@@H](C)C3CC3)C4)nc12 [Example 385]
–,–,100 to 1000,< 100,C[C@@H](C1CC1)N1Cc2cc(-c3ccn4nc(N)c(C(=O)Nc5cccc(C#N)c5)c4n3)cc(NS(C)(=O)=O)c2C1=O [Example 386]
–,–,100 to 1000,< 100,COc1cncc(NC(=O)c2c(N)nn3ccc(-c4cc5c(c(NS(C)(=O)=O)c4)C(=O)N([C@@H](C)C4CC4)C5)nc23)c1 [Example 387]
–,–,100 to 1000,< 100,C[C@@H](C1CC1)N1Cc2cc(-c3ccn4nc(N)c(C(=O)Nc5ccc(F)cc5)c4n3)cc(NS(C)(=O)=O)c2C1=O [Example 388]
–,–,100 to 1000,< 100,C[C@@H](C1CC1)N1Cc2cc(-c3ccn4nc(N)c(C(=O)Nc5ccc(CC(F)(F)F)nc5)c4n3)cc(NS(C)(=O)=O)c2C1=O [Example 389]
–,–,100 to 1000,< 100,COCC(C)(C)NC(=O)c1c(N)nn2ccc(-c3cc4c(c(NS(C)(=O)=O)c3)C(=O)N([C@@H](C)C3CC3)C4)nc12 [Example 390]
–,–,100 to 1000,< 100,Cc1ccccc1NC(=O)c1c(N)nn2ccc(-c3cc4c(c(NS(C)(=O)=O)c3)C(=O)N([C@@H](C)C3CC3)C4)nc12 [Example 391]
–,–,> 1000,< 100,C[C@@H](C1CC1)N1Cc2cc(-c3ccn4nc(N)c(C(=O)Nc5ccc(Cl)cc5)c4n3)cc(NS(C)(=O)=O)c2C1=O [Example 392]
